According to ChEMBL document CHEMBL1201862, “PubChem BioAssay data set” (2004):
Active and inactive are the calls of the source.

Tests used:
Mu-type opioid receptor = Mu-type opioid receptor (Homo sapiens, UniProt P35372); format: functional, cell-based;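 note: U2OS cells with beta-arrestin recruitment to OPRM1 by beta-gal complementation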
[1] = molecular target: 5-hydroxytryptamine receptor 2A (Mus musculus, UniProt P35363); format: functional, cell-based;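 note: CHO-K1 cells with tagged receptor and beta-arrestin; agonist potency measured as compound-induced activation of the receptor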
Chain of 5-hydroxytryptamine receptor 2A (P35363 whole entry): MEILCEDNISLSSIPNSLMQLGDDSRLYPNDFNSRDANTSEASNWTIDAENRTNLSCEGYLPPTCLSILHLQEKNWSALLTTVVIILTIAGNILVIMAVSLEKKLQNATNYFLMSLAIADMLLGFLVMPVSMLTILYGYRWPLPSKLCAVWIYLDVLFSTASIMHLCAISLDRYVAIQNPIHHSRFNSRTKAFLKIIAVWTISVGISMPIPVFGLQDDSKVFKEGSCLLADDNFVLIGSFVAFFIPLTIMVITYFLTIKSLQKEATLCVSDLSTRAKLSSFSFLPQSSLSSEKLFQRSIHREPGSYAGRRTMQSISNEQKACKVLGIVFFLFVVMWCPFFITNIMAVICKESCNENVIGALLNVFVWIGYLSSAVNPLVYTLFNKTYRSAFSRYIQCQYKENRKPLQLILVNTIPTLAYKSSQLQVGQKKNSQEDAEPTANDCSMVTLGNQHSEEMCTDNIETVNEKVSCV

[2] = Luminescence Cell-Based Dose Confirmation HTS to Identify Inhibitors of Platelet Dense Granule Release. [Related pubchem assays: 1663 (Primary HTS), 1678 (Summary of Project)]; format: functional
Streptokinase A = molecular target: T1, Streptokinase A (Streptococcus pyogenes serotype M1, UniProt P10520); assay: viability-normalized secreted streptokinase activity reduction – plasminogen activation absorbance, OD405, dose response (AID 1914); format: functional, Streptococcus pyogenes M1 GAS;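 note: secreted streptokinase activity via plasminogen activation per viability signal from cell pellet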
T1 sequence (P10520 whole entry): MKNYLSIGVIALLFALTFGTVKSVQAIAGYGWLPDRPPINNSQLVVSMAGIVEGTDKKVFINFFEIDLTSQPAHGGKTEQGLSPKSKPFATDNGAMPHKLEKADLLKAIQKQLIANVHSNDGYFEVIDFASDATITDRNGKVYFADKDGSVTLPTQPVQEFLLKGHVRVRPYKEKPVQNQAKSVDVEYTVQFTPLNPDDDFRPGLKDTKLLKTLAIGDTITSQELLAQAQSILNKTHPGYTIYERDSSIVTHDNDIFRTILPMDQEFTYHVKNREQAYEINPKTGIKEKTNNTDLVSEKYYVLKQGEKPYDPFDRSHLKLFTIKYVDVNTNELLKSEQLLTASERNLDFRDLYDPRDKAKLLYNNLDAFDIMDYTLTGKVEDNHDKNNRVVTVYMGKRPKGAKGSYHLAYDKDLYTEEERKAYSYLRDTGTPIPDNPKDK

BJ [3] = assay: cells; format: functional, cell-based; details: Homo sapiens
BJ [4] = assay: BJ-TERT-LT-ST fibroblast viability loss – cell-based, RAS-independent, luminescence, dose response (AID 1935); format: functional; details: Homo sapiens;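 note: BJ fibroblasts immortalized with TERT plus LT and ST oncogenes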
[5] = molecular target: Luciferin 4-monooxygenase (Photinus pyralis, UniProt P08659); assay: inhibition of purified Photinus pyralis luciferase – biochemical, luminescence, dose response (AID 1891)
Chain of Luciferin 4-monooxygenase (P08659 whole entry): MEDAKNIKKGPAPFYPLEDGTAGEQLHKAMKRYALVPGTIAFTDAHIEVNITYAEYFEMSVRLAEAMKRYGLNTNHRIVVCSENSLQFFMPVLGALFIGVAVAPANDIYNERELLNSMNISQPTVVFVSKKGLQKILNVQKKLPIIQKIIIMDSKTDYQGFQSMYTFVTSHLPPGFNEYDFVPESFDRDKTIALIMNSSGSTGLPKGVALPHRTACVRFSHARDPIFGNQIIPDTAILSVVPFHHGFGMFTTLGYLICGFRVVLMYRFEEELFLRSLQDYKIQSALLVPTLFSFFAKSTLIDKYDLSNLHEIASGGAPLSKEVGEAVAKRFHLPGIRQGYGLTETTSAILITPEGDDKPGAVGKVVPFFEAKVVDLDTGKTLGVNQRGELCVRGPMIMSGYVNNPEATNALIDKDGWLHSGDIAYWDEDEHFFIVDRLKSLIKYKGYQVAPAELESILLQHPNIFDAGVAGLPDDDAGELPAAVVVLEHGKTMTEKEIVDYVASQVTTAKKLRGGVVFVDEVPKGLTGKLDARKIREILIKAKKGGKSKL

[6] = DRD fibroblast viability loss – cell-based, non-viral oncogenic, luminescence, dose response (AID 1934); format: functional; details: Homo sapiens
BJ [7] = assay: BJ-TERT fibroblast viability loss – cell-based, RAS-independent, luminescence, dose response (AID 1933); format: functional; details: Homo sapiens
[8] = system: Streptococcus sp. 'group A'; assay: Streptococcus pyogenes SK(-)GAS viability under kanamycin – luminescence, BacTiterGlo, confirmation, counter-screen for streptokinase expression inhibitor project, dose response (AID 1900); format: functional, organism-based
Streptococcus = assay: GAS UMAA2166 growth inhibition – luminescence, BacTiterGlo, counter-screen for streptokinase expression inhibitor project, dose response (AID 1915); format: functional, organism-based;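 note: potency for reduction of bacterial viability or growth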
[9] = molecular target: T2, Nuclear receptor subfamily 0 group B member 1 (Homo sapiens, UniProt P51843); format: functional, cell-based;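 note: HEK293T cells transfected with SF-1 and DAX-1 plus StAR promoter luciferase reporter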
T2 sequence (P51843 whole entry): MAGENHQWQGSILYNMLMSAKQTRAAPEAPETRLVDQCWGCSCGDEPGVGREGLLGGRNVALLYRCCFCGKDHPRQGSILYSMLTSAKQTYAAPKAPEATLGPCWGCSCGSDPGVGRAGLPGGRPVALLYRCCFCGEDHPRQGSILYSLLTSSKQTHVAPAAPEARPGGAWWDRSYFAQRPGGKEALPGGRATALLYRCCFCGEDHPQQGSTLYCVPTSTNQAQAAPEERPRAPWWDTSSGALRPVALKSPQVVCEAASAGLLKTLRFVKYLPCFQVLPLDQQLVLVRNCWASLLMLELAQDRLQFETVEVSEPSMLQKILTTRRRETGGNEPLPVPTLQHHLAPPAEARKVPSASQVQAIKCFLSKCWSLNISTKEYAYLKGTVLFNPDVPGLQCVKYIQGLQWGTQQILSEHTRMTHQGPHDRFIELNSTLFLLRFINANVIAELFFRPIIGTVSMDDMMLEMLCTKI

cells [10] = format: functional, cell-based
[11] = molecular target: T3, Long-chain-fatty-acid--AMP ligase FadD28 (Mycobacterium tuberculosis, UniProt P9WQ59); assay: Fluorescence polarization aasay to screen for inhibitors that compete for the binding of FadD28 to a bisubstrate Measured in Biochemical System Using Plate Reader - 2147-01_Inhibitor_Dose_CherryPick_Activity.; format: functional, Mycobacterium tuberculosis H37Rv
T3 sequence (P9WQ59 whole entry): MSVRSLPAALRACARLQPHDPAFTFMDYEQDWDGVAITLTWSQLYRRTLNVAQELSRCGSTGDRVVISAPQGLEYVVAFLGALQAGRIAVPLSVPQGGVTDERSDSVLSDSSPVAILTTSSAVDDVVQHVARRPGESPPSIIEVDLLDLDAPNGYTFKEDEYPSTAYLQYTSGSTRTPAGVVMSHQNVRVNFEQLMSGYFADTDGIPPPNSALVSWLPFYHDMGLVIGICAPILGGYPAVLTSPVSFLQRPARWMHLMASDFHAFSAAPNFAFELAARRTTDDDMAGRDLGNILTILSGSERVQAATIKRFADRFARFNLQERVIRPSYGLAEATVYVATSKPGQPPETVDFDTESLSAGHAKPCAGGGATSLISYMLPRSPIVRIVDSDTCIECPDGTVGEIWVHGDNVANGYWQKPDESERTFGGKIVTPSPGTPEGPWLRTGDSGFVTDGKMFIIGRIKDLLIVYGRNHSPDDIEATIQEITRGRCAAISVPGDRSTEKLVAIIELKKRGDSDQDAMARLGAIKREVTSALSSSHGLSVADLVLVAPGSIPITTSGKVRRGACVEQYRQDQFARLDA

[12] = molecular target: FAD-linked sulfhydryl oxidase ALR (Homo sapiens, UniProt P55789); assay: ALR-catalysed DTT oxidation blockers – biochemical, H2O2 detection, luminescence, cherry-pick, dose response (AID 493248)
Chain of FAD-linked sulfhydryl oxidase ALR (P55789 whole entry): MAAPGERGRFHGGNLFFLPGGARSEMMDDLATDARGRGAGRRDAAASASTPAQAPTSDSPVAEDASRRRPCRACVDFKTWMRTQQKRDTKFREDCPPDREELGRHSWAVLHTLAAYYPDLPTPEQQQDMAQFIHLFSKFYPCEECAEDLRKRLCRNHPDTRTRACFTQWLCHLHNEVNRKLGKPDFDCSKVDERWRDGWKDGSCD

Large T antigen = Large T antigen (Simian virus 40, UniProt P03070); format: functional, Betapolyomavirus macacae;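 note: Confirmatory-stage PubChem screen for compounds that inhibit SV40 T antigen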
Chain of Large T antigen (P03070 whole entry): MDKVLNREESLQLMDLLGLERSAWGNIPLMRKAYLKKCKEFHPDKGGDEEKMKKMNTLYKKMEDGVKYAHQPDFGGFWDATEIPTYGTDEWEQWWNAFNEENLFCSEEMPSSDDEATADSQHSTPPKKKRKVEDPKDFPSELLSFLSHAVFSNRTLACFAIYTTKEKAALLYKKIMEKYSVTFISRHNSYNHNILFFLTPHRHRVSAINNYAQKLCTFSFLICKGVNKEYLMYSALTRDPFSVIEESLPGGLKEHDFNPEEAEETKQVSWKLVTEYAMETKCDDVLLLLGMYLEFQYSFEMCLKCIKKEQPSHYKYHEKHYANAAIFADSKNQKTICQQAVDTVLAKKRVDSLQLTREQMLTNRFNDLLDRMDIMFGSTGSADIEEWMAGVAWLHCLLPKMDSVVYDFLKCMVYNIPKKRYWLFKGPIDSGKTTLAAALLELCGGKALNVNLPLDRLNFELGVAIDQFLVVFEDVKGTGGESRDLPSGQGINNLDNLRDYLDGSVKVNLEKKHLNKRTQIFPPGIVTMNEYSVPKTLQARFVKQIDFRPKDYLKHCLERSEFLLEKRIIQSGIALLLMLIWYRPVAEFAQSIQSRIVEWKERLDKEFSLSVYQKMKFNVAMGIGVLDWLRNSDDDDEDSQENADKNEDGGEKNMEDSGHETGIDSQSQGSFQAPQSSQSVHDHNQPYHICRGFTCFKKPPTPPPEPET

[13] = molecular target: T4, Rac GTPase-activating protein 1 (Homo sapiens, UniProt Q9H0H5); assay: blockers of MgcRacGAP-driven Rac1 GTP hydrolysis – biochemical, ADP Hunter fluorescence, primary and confirmatory, confirmation (AID 624330); format: functional
T4 sequence (Q9H0H5 whole entry): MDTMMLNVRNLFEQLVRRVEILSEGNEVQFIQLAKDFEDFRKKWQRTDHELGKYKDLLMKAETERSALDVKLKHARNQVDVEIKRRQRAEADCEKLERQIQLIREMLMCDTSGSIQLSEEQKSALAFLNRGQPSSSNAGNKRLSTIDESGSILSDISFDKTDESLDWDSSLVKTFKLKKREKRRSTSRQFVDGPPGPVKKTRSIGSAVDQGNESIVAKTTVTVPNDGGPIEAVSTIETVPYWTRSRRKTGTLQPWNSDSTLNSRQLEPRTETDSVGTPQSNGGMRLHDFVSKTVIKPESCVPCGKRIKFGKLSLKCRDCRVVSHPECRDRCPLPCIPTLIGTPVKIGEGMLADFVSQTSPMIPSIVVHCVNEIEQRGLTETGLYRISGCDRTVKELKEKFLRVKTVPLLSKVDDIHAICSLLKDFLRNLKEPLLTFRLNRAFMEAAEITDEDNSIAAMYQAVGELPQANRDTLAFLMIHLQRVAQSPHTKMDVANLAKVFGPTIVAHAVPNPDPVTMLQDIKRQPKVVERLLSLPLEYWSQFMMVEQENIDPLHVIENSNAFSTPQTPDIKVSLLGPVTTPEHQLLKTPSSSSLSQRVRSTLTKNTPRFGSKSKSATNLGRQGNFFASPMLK

[14] = molecular target: T5, Trace amine-associated receptor 1 (Homo sapiens, UniProt Q96RJ0); assay: Fluorescence-based cell-based high throughput dose response assay to identify agonists of the human trace amine associated receptor 1 (TAAR1).; format: functional
T5 sequence (Q96RJ0 whole entry): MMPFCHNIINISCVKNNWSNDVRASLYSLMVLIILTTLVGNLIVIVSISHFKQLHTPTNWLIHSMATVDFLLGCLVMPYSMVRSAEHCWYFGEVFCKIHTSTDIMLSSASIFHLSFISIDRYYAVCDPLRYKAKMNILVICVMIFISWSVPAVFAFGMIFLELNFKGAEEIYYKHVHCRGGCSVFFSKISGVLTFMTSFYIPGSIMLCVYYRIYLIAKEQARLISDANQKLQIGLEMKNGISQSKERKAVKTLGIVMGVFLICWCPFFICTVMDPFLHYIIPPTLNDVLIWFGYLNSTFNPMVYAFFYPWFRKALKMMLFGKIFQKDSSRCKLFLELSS

[15] = molecular target: T6, Heat shock factor protein 1 (Mus musculus, UniProt P38532); assay: enhancement of HSF1-driven luciferase signal – cell-based, NIH3T3, luminescence, dose retest, confirmation (AID 435004); format: functional;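 note: stress induced by proteasome inhibitor MG132 added 30 min after compound; luciferase reporter driven by HSF1 response element in NIH3T3 cells; actives raise luminescence as potentiators of the MG132 stress response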
T6 sequence (P38532 whole entry): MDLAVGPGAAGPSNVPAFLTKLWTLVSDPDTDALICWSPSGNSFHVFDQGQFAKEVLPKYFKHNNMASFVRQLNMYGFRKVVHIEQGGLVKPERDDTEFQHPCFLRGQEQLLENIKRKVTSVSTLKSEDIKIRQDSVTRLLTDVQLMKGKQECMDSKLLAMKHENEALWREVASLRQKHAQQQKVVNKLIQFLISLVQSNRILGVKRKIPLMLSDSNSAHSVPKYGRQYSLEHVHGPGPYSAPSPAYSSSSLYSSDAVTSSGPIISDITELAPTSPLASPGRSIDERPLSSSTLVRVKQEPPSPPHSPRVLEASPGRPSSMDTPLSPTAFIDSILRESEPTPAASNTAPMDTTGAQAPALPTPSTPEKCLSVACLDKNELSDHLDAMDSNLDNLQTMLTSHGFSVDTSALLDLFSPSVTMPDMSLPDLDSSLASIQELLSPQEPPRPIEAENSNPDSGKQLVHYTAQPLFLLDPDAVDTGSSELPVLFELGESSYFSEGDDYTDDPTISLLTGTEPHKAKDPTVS

cells [16] = format: functional, cell-based; remark: listed apart in the source
cells [17] = format: functional, cell-based; remark: listed apart in the source
[18] = molecular target: T5, Trace amine-associated receptor 1; assay: Counterscreen for agonists of the human trace amine associated receptor 1 (hTAAR1): Fluorescence-based cell-based high throughput dose response assay to identify hTAAR1 agonist that also desensitize TAAR1 receptor response.; format: functional
[19] = blockers of HIV-1 envelope-mediated cell-cell fusion – cherry-pick, dose response (AID 652057); format: functional, cell-based
[20] = viability loss in CEM21 cells – cell-based, CellTiter-Glo luminescence, cherry-picked, cytotoxicity control for viral fusion inhibitor project, dose response (AID 652042); format: functional;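 note: potency for signal decrease meaning cytotoxicity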
[21] = blockers of HIV-1 ZM109 envelope-driven cell-cell fusion – HeLa effector, CEM target cells, luciferase, cherry-pick, dose response (AID 652058); format: functional, cell-based;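 note: luciferase signal from HIV-1 Env mediated cell-cell fusion of effector and target cells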
[22] = HIV-1 AD8 envelope cell-cell fusion blockers – cherry-pick, dose response (AID 652062); format: functional, cell-based;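 note: luciferase signal from cell-cell fusion driven by HIV-1 clade B AD8 Env; potency is for inhibitors of fusion seen as a drop in luminescence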
[23] = off-target signal loss in HeLa-CEM21 co-culture – HeLa F-luc CTL cells, cherry-picked, counter-screen for HIV-1 Env fusion inhibitor project, dose response (AID 652040); format: functional, cell-based;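 note: potency for signal decrease marking cytotoxic or nonspecific inhibition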

Chain of Mu-type opioid receptor (P35372 whole entry): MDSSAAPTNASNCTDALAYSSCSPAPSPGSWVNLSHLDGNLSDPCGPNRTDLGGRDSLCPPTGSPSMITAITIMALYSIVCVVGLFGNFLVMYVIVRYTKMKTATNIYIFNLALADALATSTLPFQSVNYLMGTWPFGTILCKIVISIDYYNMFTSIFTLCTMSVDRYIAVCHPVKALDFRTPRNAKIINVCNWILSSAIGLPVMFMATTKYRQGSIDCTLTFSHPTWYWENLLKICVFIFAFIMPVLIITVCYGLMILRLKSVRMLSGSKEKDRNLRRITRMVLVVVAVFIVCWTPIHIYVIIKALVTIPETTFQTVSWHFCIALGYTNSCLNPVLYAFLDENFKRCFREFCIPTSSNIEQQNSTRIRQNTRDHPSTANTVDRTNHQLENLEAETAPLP

C(=C\c1ccccc1)/CN1CCN(C(c2nnnn2-c2ccc3c(c2)OCCO3)C2CC2)CC1 (stereo not given)
EC50 (Mu-type opioid receptor): 92.3 µM (inactive) | EC50 [1]: 76 µM (inactive)

O=Nc1c2cc(-c3ccccc3)n[nH]c-2c2ccccc12
EC50 [2]: 1.47 µM (active) | EC50 (Streptokinase A): > 150 µM (not active) | EC50 (BJ [3]): 6.29 µM (active) | EC50 (BJ [4]): > 150 µM (not active) | EC50 [5]: 0.222 µM (active) | EC50 [6]: 4.14 µM (active) | EC50 (BJ [7]): 6.53 µM (active) | EC50 [8]: 5.57 µM (active) | EC50 (Streptococcus): 14.7 µM (active) | IC50 [9]: > 0.833 µM (active) | IC50 (cells [10]): > 67.5 µM (inactive)

O=C(O)c1cccc2c1-c1ccccc1/C2=N\Nc1ccccc1
AC50 [11]: > 100 µM (inactive) | AC50 [12]: 0.264 µM (active)

OC1CCN(C(S)=Nc2ccc(Nc3ccccc3)cc2)CC1
AC50 [11]: > 100 µM (inactive) | IC50 (Large T antigen): 6.93 µM (active) | IC50 [13]: 38.7 µM (active)

O=C(CSc1cccc[n+]1[O-])c1ccc(-c2ccccc2)cc1
IC50 [9]: > 67.5 µM (inactive) | IC50 (cells [10]): > 67.5 µM (inactive)

COc1cccc(CN2CCN(c3ncccn3)CC2)c1OC
EC50 (Mu-type opioid receptor): 92.5 µM (inactive) | EC50 [1]: 21.6 µM (inactive)

O=C(CCN1CCc2ccccc2C(c2ccccc2)C1)c1ccc2c(c1)OCCO2 (stereo not given)
EC50 [14]: 4.51 µM (active) | EC50 [15]: > 260 µM (inactive) | IC50 (cells [16]): > 29.9 µM (inactive) | EC50 (cells [17]): > 29.9 µM (inactive) | IC50 [18]: 9.28 µM (active)

Cc1cnc(C)c(Nc2nc(C(N)Cc3ccc(C(F)(F)F)cc3)cs2)n1 (stereo not given)
AC50 [19]: 5.44 µM (active) | AC50 [20]: 18.1 µM (active) | AC50 [21]: 10.5 µM (active) | AC50 [22]: 7.29 µM (active) | AC50 [23]: 5.07 µM (active)

OCC1(Cc2cccc(C(F)(F)F)c2)CCN(Cc2cc3ccccc3o2)CC1
EC50 [15]: > 260 µM (inactive) | EC50 (Mu-type opioid receptor): 92.5 µM (inactive) | EC50 [1]: 3.6 µM (active)
